Where only a bound is given, the exact number is not on record here.

Drawing on US20140058103A1, “Inhibitors of PI3K-Delta and Methods of Their Use and Manufacture” (Exelixis, Inc., priority 2010, published 2014), this text covers IC50 for 30 compounds.

Sequence of PI3K delta (O00329 whole entry): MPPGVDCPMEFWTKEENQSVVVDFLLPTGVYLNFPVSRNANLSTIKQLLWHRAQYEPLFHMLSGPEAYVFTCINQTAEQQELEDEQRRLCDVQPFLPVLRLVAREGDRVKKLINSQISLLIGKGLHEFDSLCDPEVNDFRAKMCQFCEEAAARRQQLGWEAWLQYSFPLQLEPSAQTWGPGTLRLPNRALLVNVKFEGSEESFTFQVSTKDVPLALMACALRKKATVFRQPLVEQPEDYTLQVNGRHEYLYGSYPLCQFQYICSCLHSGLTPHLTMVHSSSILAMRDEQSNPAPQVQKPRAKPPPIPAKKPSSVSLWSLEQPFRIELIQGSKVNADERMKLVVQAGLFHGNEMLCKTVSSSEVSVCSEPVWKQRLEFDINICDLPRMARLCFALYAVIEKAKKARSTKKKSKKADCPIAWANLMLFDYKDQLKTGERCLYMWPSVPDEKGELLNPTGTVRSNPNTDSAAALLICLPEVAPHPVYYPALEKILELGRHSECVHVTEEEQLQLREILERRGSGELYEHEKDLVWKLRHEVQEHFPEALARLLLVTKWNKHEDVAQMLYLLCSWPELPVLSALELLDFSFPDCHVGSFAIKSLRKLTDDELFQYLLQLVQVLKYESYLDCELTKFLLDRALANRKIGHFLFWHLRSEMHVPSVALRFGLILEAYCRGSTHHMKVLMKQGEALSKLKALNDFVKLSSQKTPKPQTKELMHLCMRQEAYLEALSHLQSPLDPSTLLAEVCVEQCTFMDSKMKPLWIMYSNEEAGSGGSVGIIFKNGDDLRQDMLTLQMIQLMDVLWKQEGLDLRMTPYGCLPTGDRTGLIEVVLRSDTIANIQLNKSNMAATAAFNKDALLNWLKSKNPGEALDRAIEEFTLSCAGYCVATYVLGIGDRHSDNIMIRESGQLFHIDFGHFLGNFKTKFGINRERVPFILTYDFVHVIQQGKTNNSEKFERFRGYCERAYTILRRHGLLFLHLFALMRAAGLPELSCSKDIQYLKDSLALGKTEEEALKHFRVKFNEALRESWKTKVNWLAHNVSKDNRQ
Sequence of PI3K delta (P27986 whole entry partner): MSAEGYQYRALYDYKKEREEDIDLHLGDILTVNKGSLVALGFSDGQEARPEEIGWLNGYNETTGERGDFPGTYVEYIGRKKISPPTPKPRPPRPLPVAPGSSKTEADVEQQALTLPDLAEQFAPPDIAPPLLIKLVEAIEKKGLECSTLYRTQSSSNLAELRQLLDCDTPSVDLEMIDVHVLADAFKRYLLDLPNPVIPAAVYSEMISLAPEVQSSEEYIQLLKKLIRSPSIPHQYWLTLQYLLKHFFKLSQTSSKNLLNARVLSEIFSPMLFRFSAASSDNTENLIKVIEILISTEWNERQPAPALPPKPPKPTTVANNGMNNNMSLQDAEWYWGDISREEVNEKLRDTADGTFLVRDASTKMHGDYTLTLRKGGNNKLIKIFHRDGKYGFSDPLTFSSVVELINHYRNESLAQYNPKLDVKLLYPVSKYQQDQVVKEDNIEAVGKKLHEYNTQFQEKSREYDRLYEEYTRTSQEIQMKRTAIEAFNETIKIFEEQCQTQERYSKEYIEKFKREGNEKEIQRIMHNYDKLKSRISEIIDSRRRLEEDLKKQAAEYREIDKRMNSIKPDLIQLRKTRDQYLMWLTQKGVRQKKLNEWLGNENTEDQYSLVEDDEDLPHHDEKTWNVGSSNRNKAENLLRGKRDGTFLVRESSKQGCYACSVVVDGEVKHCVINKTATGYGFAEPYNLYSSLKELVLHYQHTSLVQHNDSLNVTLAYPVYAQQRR

In this experiment the target is PI3K delta (Homo sapiens, UniProt O00329). The experiment is described as follows: Luciferase-coupled chemiluminescence kinase assay (ATP consumption, KinaseGlo). It is filed as biochemical. The procedure:
Kinase activity and compound inhibition were investigated using one or more of the assay formats described below. The ATP concentrations used in the various assays were approximately equal to or less than the KM for each of the respective kinases. Dose-response experiments were performed using an intra-plate dilution scheme with 10 different inhibitor concentrations in a 384-well microtiter plate. IC50 values were calculated by nonlinear regression analysis using the four-parameter equation listed below:
Y=min+(max−min)/(1+(X/IC50)^N) Equation 1
Typically N should approximate unity. Curve fitting was performed using XLFit or ActivityBase.
Kinase activity is measured as the percent of ATP consumed following the kinase reaction using luciferase-luciferin-coupled chemiluminescence. […] Kinase reactions were initiated by combining test compounds, kinase, and ATP in a 20 μL volume (6 μL volume for 1536-well plate). The reaction mixture was incubated at ambient temperature for 2 h. Following the kinase reaction, a 20 μL (or […] for 1536-well plate) aliquot of KinaseGlo (Promega) was added and the chemiluminescence signal measured using an EnVision plate reader (Perkin Elmer).
For `CCNC(=O)c1nc2c(N3CCC4(CC3)C(=O)Nc3ccccc34)ncnc2n1C` [Compound 32, N-ethyl-9-methyl-6-(2-oxo-1,2-dihydro-1H-spiro[indole-3,4′-piperidin]-1′-yl)-9H-purine-8-carboxamide], the IC50 fell in the range of 0.05 to 0.25 µM.

As to `Cn1c(C(=O)NCc2ccc(F)cc2F)nc2c(N3CCC4(CC3)C(=O)Nc3ccccc34)ncnc21` [Compound 33, N-[(2,4-difluorophenyl)methyl]-9-methyl-6-(2-oxo-1,2-dihydro-1′H-spiro[indole-3,4′-piperidin]-1′-yl)-9H-purine-8-carboxamide], the IC50 is 0.5 to 1.5 µM.

`CC(C)CNC(=O)c1nc2c(N3CCC4(CC3)C(=O)Nc3ccccc34)ncnc2n1C` [Compound 34, 9-methyl-N-(2-methylpropyl)-6-(2-oxo-1,2-dihydro-1′H-spiro[indole-3,4′-piperidin]-1′-yl)-9H-purine-8-carboxamide] gave an IC50 below 0.05 µM.

`Cn1c(C(=O)N2CCCC2)nc2c(N3CCC4(CC3)C(=O)Nc3ccccc34)ncnc21` [Compound 35, 1′-[9-methyl-8-(pyrrolidin-1-ylcarbonyl)-9H-purin-6-yl]spiro[indole-3,4′-piperidin]-2(1H)-one]: the IC50 lay in the range of 0.5 to 1.5 µM.

As to `CCCNC(=O)c1nc2c(N3CCC4(CC3)C(=O)Nc3ccccc34)ncnc2n1C` [Compound 36, 9-methyl-6-(2-oxo-1,2-dihydro-1′H-spiro[indole-3,4′-piperidin]-1′-yl)-N-propyl-9H-purine-8-carboxamide], the IC50 was 0.05 to 0.25 µM.

The compound `CCCCCCNC(=O)c1nc2c(N3CCC4(CC3)C(=O)Nc3ccccc34)ncnc2n1C` [Compound 37, N-hexyl-9-methyl-6-(2-oxo-1,2-dihydro-1′H-spiro[indole-3,4′-piperidin]-1′-yl)-9H-purine-8-carboxamide] registered an IC50 of 0.5 to 1.5 µM.

`CC(C)N(C)C(=O)c1nc2c(N3CCC4(CC3)C(=O)Nc3ccccc34)ncnc2n1C` [Compound 38, N,9-dimethyl-N-(1-methylethyl)-6-(2-oxo-1,2-dihydro-1′H-spiro[indole-3,4′-piperidin]-1′-yl)-9H-purine-8-carboxamide] returned an IC50 of 0.5 to 1.5 µM.

Compound `CN(CCC#N)C(=O)c1nc2c(N3CCC4(CC3)C(=O)Nc3ccccc34)ncnc2n1C` [Compound 39, N-(2-cyanoethyl)-N,9-dimethyl-6-(2-oxo-1,2-dihydro-1′H-spiro[indole-3,4′-piperidin]-1′-yl)-9H-purine-8-carboxamide] had an IC50 of 0.5 to 1.5 µM.

For `CC(C)CCNC(=O)c1nc2c(N3CCC4(CC3)C(=O)Nc3ccccc34)ncnc2n1C` [Compound 40, 9-methyl-N-(3-methylbutyl)-6-(2-oxo-1,2-dihydro-1′H-spiro[indole-3,4′-piperidin]-1′-yl)-9H-purine-8-carboxamide], the IC50 lay in the range of 0.05 to 0.25 µM.

Compound `Cn1c(C(=O)N2CC(O)C2)nc2c(N3CCC4(CC3)C(=O)Nc3ccccc34)ncnc21` [Compound 41, 1′-{8-[(3-hydroxyazetidin-1-yl)carbonyl]-9-methyl-9H-purin-6-yl}spiro[indole-3,4′-piperidin]-2(1H)-one] yielded an IC50 of 0.05 to 0.25 µM.

On to `Cn1c(C(=O)NCCCCO)nc2c(N3CCC(n4c(=O)[nH]c5ccccc54)CC3)ncnc21` [Compound 42, N-(4-hydroxybutyl)-9-methyl-6-[4-(2-oxo-2,3-dihydro-1H-benzimidazol-1-yl)piperidin-1-yl]-9H-purine-8-carboxamide], for which the IC50 lay in the range of 0.05 to 0.25 µM.

`Cn1c(C(=O)NC2CC2)nc2c(N3CCC(n4c(=O)[nH]c5ccccc54)CC3)ncnc21` [Compound 43, N-cyclopropyl-9-methyl-6-[4-(2-oxo-2,3-dihydro-1H-benzimidazol-1-yl)piperidin-1-yl]-9H-purine-8-carboxamide] showed an IC50 of 0.05 to 0.25 µM.

With `Cn1c(C(=O)NC2CCC2)nc2c(N3CCC(n4c(=O)[nH]c5ccccc54)CC3)ncnc21` [Compound 44, N-cyclobutyl-9-methyl-6-[4-(2-oxo-2,3-dihydro-1H-benzimidazol-1-yl)piperidin-1-yl]-9H-purine-8-carboxamide], the IC50 fell in the range of 0.05 to 0.25 µM.

`CCCCNC(=O)c1nc2c(N3CCC(n4c(=O)[nH]c5ccccc54)CC3)ncnc2n1C` [Compound 45, N-butyl-9-methyl-6-[4-(2-oxo-2,3-dihydro-1H-benzimidazol-1-yl)piperidin-1-yl]-9H-purine-8-carboxamide]: the half-maximal inhibitory concentration (IC50) was below 0.05 µM.

In turn, `Cn1c(C(=O)NCc2ccco2)nc2c(N3CCC(n4c(=O)[nH]c5ccccc54)CC3)ncnc21` [Compound 46, N-(furan-2-ylmethyl)-9-methyl-6-[4-(2-oxo-2,3-dihydro-1H-benzimidazol-1-yl)piperidin-1-yl]-9H-purine-8-carboxamide] displayed an IC50 of 0.05 to 0.25 µM.

The compound `Cn1c(C(=O)NC2CCc3ccccc32)nc2c(N3CCC(n4c(=O)[nH]c5ccccc54)CC3)ncnc21` (stereo not drawn) [Compound 47, N-(2,3-dihydro-1H-inden-1-yl)-9-methyl-6-[4-(2-oxo-2,3-dihydro-1H-benzimidazol-1-yl)piperidin-1-yl]-9H-purine-8-carboxamide] displayed an IC50 of 0.05 to 0.25 µM.

Compound `Cn1c(C(=O)NCCCO)nc2c(N3CCC(n4c(=O)[nH]c5ccccc54)CC3)ncnc21` [Compound 48, N-(3-hydroxypropyl)-9-methyl-6-[4-(2-oxo-2,3-dihydro-1H-benzimidazol-1-yl)piperidin-1-yl]-9H-purine-8-carboxamide] yielded an IC50 of 0.05 to 0.25 µM.

Consider `Cn1c(C(=O)NCc2cccs2)nc2c(N3CCC(n4c(=O)[nH]c5ccccc54)CC3)ncnc21` [Compound 49, 9-methyl-6-[4-(2-oxo-2,3-dihydro-1H-benzimidazol-1-yl)piperidin-1-yl]-N-(2-thienylmethyl)-9H-purine-8-carboxamide], for which the IC50 lay in the range of 0.05 to 0.25 µM.

Turning to `Cn1c(C(=O)NCc2ccc3c(c2)OCO3)nc2c(N3CCC(n4c(=O)[nH]c5ccccc54)CC3)ncnc21` [Compound 50, N-(1,3-benzodioxol-5-ylmethyl)-9-methyl-6-[4-(2-oxo-2,3-dihydro-1H-benzimidazol-1-yl)piperidin-1-yl]-9H-purine-8-carboxamide], the IC50 lay within 0.25 to 0.5 µM.

With `Cn1c(C(=O)NCCc2ccccn2)nc2c(N3CCC(n4c(=O)[nH]c5ccccc54)CC3)ncnc21` [Compound 51, 9-methyl-6-[4-(2-oxo-2,3-dihydro-1H-benzimidazol-1-yl)piperidin-1-yl]-N-(2-pyridin-2-ylethyl)-9H-purine-8-carboxamide], the IC50 is 0.5 to 1.5 µM.

Take `Cn1c(C(=O)NCc2ccncc2)nc2c(N3CCC(n4c(=O)[nH]c5ccccc54)CC3)ncnc21` [Compound 52, 9-methyl-6-[4-(2-oxo-2,3-dihydro-1H-benzimidazol-1-yl)piperidin-1-yl]-N-(pyridin-4-ylmethyl)-9H-purine-8-carboxamide]: the IC50 is 0.05 to 0.25 µM.

In turn, `CC(NC(=O)c1nc2c(N3CCC(n4c(=O)[nH]c5ccccc54)CC3)ncnc2n1C)c1ccccc1` (stereo not drawn) [Compound 53, 9-methyl-6-[4-(2-oxo-2,3-dihydro-1H-benzimidazol-1-yl)piperidin-1-yl]-N-(1-phenylethyl)-9H-purine-8-carboxamide] registered an IC50 of 0.5 to 1.5 µM.

Turning to `CC(C)NC(=O)c1nc2c(N3CCC(n4c(=O)[nH]c5ccccc54)CC3)ncnc2n1C` [Compound 54, 9-methyl-N-(1-methylethyl)-6-[4-(2-oxo-2,3-dihydro-1H-benzimidazol-1-yl)piperidin-1-yl]-9H-purine-8-carboxamide], the IC50 lay in the range of 0.05 to 0.25 µM.

For `Cn1c(C(=O)NCCO)nc2c(N3CCC(n4c(=O)[nH]c5ccccc54)CC3)ncnc21` [Compound 55, N-(2-hydroxyethyl)-9-methyl-6-[4-(2-oxo-2,3-dihydro-1H-benzimidazol-1-yl)piperidin-1-yl]-9H-purine-8-carboxamide], the IC50 lay in the range of 0.05 to 0.25 µM.

Consider `COc1ccccc1CNC(=O)c1nc2c(N3CCC(n4c(=O)[nH]c5ccccc54)CC3)ncnc2n1C` [Compound 56, 9-methyl-N-{[2-(methyloxy)phenyl]methyl}-6-[4-(2-oxo-2,3-dihydro-1H-benzimidazol-1-yl)piperidin-1-yl]-9H-purine-8-carboxamide], for which the IC50 was 0.25 to 0.5 µM.

For `Cc1ccccc1CNC(=O)c1nc2c(N3CCC(n4c(=O)[nH]c5ccccc54)CC3)ncnc2n1C` [Compound 57, 9-methyl-N-[(2-methylphenyl)methyl]-6-[4-(2-oxo-2,3-dihydro-1H-benzimidazol-1-yl)piperidin-1-yl]-9H-purine-8-carboxamide], the IC50 was 0.25 to 0.5 µM.

With `Cn1c(C(=O)NCc2cccc(F)c2)nc2c(N3CCC(n4c(=O)[nH]c5ccccc54)CC3)ncnc21` [Compound 58, N-[(3-fluorophenyl)methyl]-9-methyl-6-[4-(2-oxo-2,3-dihydro-1H-benzimidazol-1-yl)piperidin-1-yl]-9H-purine-8-carboxamide], the IC50 lay within 0.05 to 0.25 µM.

On to `COc1ccc(CNC(=O)c2nc3c(N4CCC(n5c(=O)[nH]c6ccccc65)CC4)ncnc3n2C)cc1` [Compound 59, 9-methyl-N-{[4-(methyloxy)phenyl]methyl}-6-[4-(2-oxo-2,3-dihydro-1H-benzimidazol-1-yl)piperidin-1-yl]-9H-purine-8-carboxamide], for which the IC50 is 0.25 to 0.5 µM.

Compound `Cn1c(C(=O)NCC(F)(F)F)nc2c(N3CCC(n4c(=O)[nH]c5ccccc54)CC3)ncnc21` [Compound 60, 9-methyl-6-[4-(2-oxo-2,3-dihydro-1H-benzimidazol-1-yl)piperidin-1-yl]-N-(2,2,2-trifluoromethyl)-9H-purine-8-carboxamide] registered an IC50 below 0.05 µM.

As to `CC(CNC(=O)c1nc2c(N3CCC(n4c(=O)[nH]c5ccccc54)CC3)ncnc2n1C)c1ccccc1` (stereo not drawn) [Compound 61, 9-methyl-6-[4-(2-oxo-2,3-dihydro-1H-benzimidazol-1-yl)piperidin-1-yl]-N-(2-phenylpropyl)-9H-purine-8-carboxamide], the IC50 is 0.25 to 0.5 µM.
